Measured values as given in publication PMC7830303, “Development of Antimicrobial Stapled Peptides Based on Magainin 2 Sequence” (Molecules, 2021).
≈ marks a conversion by molar mass, not a printed value. Bridge positions count the residues as written; N and C are the ends. Square brackets hold non-standard residues; d marks the D form. Peptide text beside a SMILES is read from it. * marks the point of attachment. Stearoyl = CCCCCCCCCCCCCCCCCC(=O)*; R8 = C=CCCCCCC[C@@](C)(N)C(=O)O; Lauroyl = CCCCCCCCCCCC(=O)*; S5 = C=CCCC[C@](C)(N)C(=O)O; Hexanoyl = CCCCCC(=O)*; Aib = CC(C)(N)C(=O)O

How the values were obtained:
[1] = system: multiple-drug resistant P. aeruginosa (MDRP); type: cell-based, Pseudomonas aeruginosa; details: multiple-drug resistant (MDRP, 16 h)
Description: (§1) Selected bacterial strains were obtained from Biological Resource Center, NITE (NBRC; Tokyo, Japan). E. coli DH5α was purchased from BioDynamics Laboratory, Inc. (Tokyo, Japan). The antimicrobial activities of the peptides against the gram-positive S. aureus and gram-negative E. coli DH5α, P. aeruginosa, and MDRP were measured using standard broth microdilution method as previously described. Briefly, the bacteria were inoculated and grown overnight at 37 °C on agar media for other organisms i and then collected with liquid media for other organisms ii, according to Japanese Pharmacopoeia, 17th Edition. Each peptide was 2-fold serially diluted with an initial concentration of 500 μM to a final concentration of 1 μM using PBS. Then, 10 μL of the peptide solution was added to each well of a sterile 96-well plate. Subsequently, 90 μL of inoculation with 10^4 colony forming units (CFUs) per mL were added to each well, and the plate was incubated at 35 °C for 16 h.

digestive enzymes = details: cited from earlier work
Excerpt: Mag2 comprises cationic and hydrophobic amino acid residues and employs a helical structure […]. These properties are required for interaction with microbial membranes, and subsequent Mag2 insertions into membranes induce bacterial pore formation and ion efflux to exert their antimicrobial activity. The antimicrobial activity of AMPs targets the bacterial ...

Pseudomonas aeruginosa = type: cell-based; details: 16 h
Description: as §1

Escherichia coli DH5α = type: cell-based; details: 16 h
Description: as §1

Staphylococcus aureus = type: cell-based; details: 16 h
Description: as §1

[2] = pH 7.4

| SMILES | MIC, Gram Negative, MDRP [1] [µM] | Resistance against digestive enzymes (digestive enzymes) | MIC, Gram Negative, P.a. (Pseudomonas aeruginosa) [µM] | MIC, Gram Negative, E.c. (DH5α) (Escherichia coli DH5α) [µM] | MIC, Gram Positive, S.a. (Staphylococcus aureus) [µM] | Solubility in the aqueous buffer solution [2] |
| --- | --- | --- | --- | --- | --- | --- |
| CC[C@H](C)[C@H](NC(=O)CN)C(=O)N[C@@H](CCCCN)C(=O)N[C@@H](CCCCN)C(=O)N[C@@H](Cc1ccccc1)C(=O)N[C@@H](CC(C)C)C(=O)N[C@@H](CCCCN)C(=O)N[C@@H](CO)C(=O)NC(C)(C)C(=O)N[C@@H](CCCCN)C(=O)N[C@@H](CCCCN)C(=O)N[C@@H](Cc1ccccc1)C(=O)N[C@H](C(=O)N[C@@H](CCCCN)C(=O)NC(C)(C)C(=O)N[C@@H](Cc1ccccc1)C(=O)N[C@@H](CCCCN)C(N)=O)C(C)C [Peptide 1, reference compound] (H-GIKKFLKS[Aib]KKFVK[Aib]FK-NH2) | 3.125 (≈ 6.24 µg/mL) | showed resistance against digestive enzymes | 3.125 (≈ 6.24 µg/mL) | 3.125 (≈ 6.24 µg/mL) | 12.5 (≈ 24.9 µg/mL) | – |
| CC[C@H](C)[C@@H]1NC(=O)[C@@](C)(N)CCCC=CCCC[C@@](C)(C(=O)N[C@@H](CC(C)C)C(=O)N[C@@H](CCCCN)C(=O)N[C@@H](CO)C(=O)N[C@@H](C)C(=O)N[C@@H](CCCCN)C(=O)N[C@@H](CCCCN)C(=O)N[C@@H](Cc2ccccc2)C(=O)N[C@H](C(=O)N[C@@H](CCCCN)C(=O)N[C@@H](C)C(=O)N[C@@H](Cc2ccccc2)C(=O)N[C@@H](CCCCN)C(N)=O)C(C)C)NC(=O)[C@H](CCCCN)NC(=O)[C@H](CCCCN)NC1=O [Peptide 2] (H-[S5]IKK[S5]LKSAKKFVKAFK-NH2; staple 1-5) | 1.56 (≈ 3.14 µg/mL) | – | 1.56 (≈ 3.14 µg/mL) | 1.56 (≈ 3.14 µg/mL) | 3.125 (≈ 6.29 µg/mL) | – |
| CC[C@H](C)[C@H](NC(=O)CN)C(=O)N[C@@H](CCCCN)C(=O)N[C@@H](CCCCN)C(=O)N[C@@]1(C)CCCC=CCCC[C@@](C)(C(=O)N[C@@H](CCCCN)C(=O)N[C@@H](CCCCN)C(=O)N[C@@H](Cc2ccccc2)C(=O)N[C@H](C(=O)N[C@@H](CCCCN)C(=O)N[C@@H](C)C(=O)N[C@@H](Cc2ccccc2)C(=O)N[C@@H](CCCCN)C(N)=O)C(C)C)NC(=O)[C@H](CO)NC(=O)[C@H](CCCCN)NC(=O)[C@H](CC(C)C)NC1=O [Peptide 3] (H-GIKK[S5]LKS[S5]KKFVKAFK-NH2; staple 5-9) | 0.78 (≈ 1.56 µg/mL) | – | 3.125 (≈ 6.25 µg/mL) | 1.56 (≈ 3.12 µg/mL) | 3.125 (≈ 6.25 µg/mL) | – |
| CC[C@H](C)[C@H](NC(=O)CN)C(=O)N[C@@H](CCCCN)C(=O)N[C@@H](CCCCN)C(=O)N[C@@H](Cc1ccccc1)C(=O)N[C@@H](CC(C)C)C(=O)N[C@@H](CCCCN)C(=O)N[C@@]1(C)CCCC=CCCC[C@@](C)(C(=O)N[C@H](C(=O)N[C@@H](CCCCN)C(=O)N[C@@H](C)C(=O)N[C@@H](Cc2ccccc2)C(=O)N[C@@H](CCCCN)C(N)=O)C(C)C)NC(=O)[C@H](CCCCN)NC(=O)[C@H](CCCCN)NC(=O)[C@H](C)NC1=O [Peptide 4] (H-GIKKFLK[S5]AKK[S5]VKAFK-NH2; staple 8-12) | 0.78 (≈ 1.55 µg/mL) | – | 1.56 (≈ 3.09 µg/mL) | 1.56 (≈ 3.09 µg/mL) | 6.25 (≈ 12.4 µg/mL) | – |
| CC[C@H](C)[C@H](NC(=O)CN)C(=O)N[C@@H](CCCCN)C(=O)N[C@@H](CCCCN)C(=O)N[C@@H](Cc1ccccc1)C(=O)N[C@@H](CC(C)C)C(=O)N[C@@H](CCCCN)C(=O)N[C@@H](CO)C(=O)N[C@@]1(C)CCCC=CCCC[C@@](C)(C(=O)N[C@@H](CCCCN)C(=O)N[C@@H](C)C(=O)N[C@@H](Cc2ccccc2)C(=O)N[C@@H](CCCCN)C(N)=O)NC(=O)[C@H](Cc2ccccc2)NC(=O)[C@H](CCCCN)NC(=O)[C@H](CCCCN)NC1=O [Peptide 5] (H-GIKKFLKS[S5]KKF[S5]KAFK-NH2; staple 9-13) | 3.125 (≈ 6.4 µg/mL) | – | 6.25 (≈ 12.8 µg/mL) | 1.56 (≈ 3.19 µg/mL) | 12.5 (≈ 25.6 µg/mL) | – |
| CC[C@H](C)[C@H](NC(=O)CN)C(=O)N[C@@H](CCCCN)C(=O)N[C@@H](CCCCN)C(=O)N[C@@H](Cc1ccccc1)C(=O)N[C@@H](CC(C)C)C(=O)N[C@@H](CCCCN)C(=O)N[C@@H](CO)C(=O)N[C@@H](C)C(=O)N[C@@H](CCCCN)C(=O)N[C@@H](CCCCN)C(=O)N[C@@]1(C)CCCC=CCCC[C@@](C)(C(=O)N[C@@H](CCCCN)C(N)=O)NC(=O)[C@H](C)NC(=O)[C@H](CCCCN)NC(=O)[C@H](C(C)C)NC1=O [Peptide 6] (H-GIKKFLKSAKK[S5]VKA[S5]K-NH2; staple 12-16) | 0.78 (≈ 1.5 µg/mL) | – | 1.56 (≈ 3 µg/mL) | 1.56 (≈ 3 µg/mL) | 3.125 (≈ 6.01 µg/mL) | – |
| CC[C@H](C)[C@H](NC(=O)CN)C(=O)N[C@@H](CCCCN)C(=O)N[C@@H](CCCCN)C(=O)N[C@]1(C)CCCCCCC=CCCC[C@@](C)(C(=O)N[C@H](C(=O)N[C@@H](CCCCN)C(=O)N[C@@H](C)C(=O)N[C@@H](Cc2ccccc2)C(=O)N[C@@H](CCCCN)C(N)=O)C(C)C)NC(=O)[C@H](CCCCN)NC(=O)[C@H](CCCCN)NC(=O)[C@H](C)NC(=O)[C@H](CO)NC(=O)[C@H](CCCCN)NC(=O)[C@H](CC(C)C)NC1=O [Peptide 7] (H-GIKK[R8]LKSAKK[S5]VKAFK-NH2; staple 5-12) | 1.56 (≈ 3.07 µg/mL) | – | 3.125 (≈ 6.14 µg/mL) | 3.125 (≈ 6.14 µg/mL) | 25 (≈ 49.1 µg/mL) | – |
| CC[C@H](C)[C@H](NC(=O)CN)C(=O)N[C@@H](CCCCN)C(=O)N[C@@H](CCCCN)C(=O)N[C@@H](Cc1ccccc1)C(=O)N[C@@H](CC(C)C)C(=O)N[C@@H](CCCCN)C(=O)N[C@]1(C)CCCCCCC=CCCC[C@@](C)(C(=O)N[C@@H](Cc2ccccc2)C(=O)N[C@@H](CCCCN)C(N)=O)NC(=O)[C@H](CCCCN)NC(=O)[C@H](C(C)C)NC(=O)[C@H](Cc2ccccc2)NC(=O)[C@H](CCCCN)NC(=O)[C@H](CCCCN)NC(=O)[C@H](C)NC1=O [Peptide 8] (H-GIKKFLK[R8]AKKFVK[S5]FK-NH2; staple 8-15) | 3.125 (≈ 6.57 µg/mL) | – | >50 | 6.25 (≈ 13.1 µg/mL) | >50 | – |
| CC[C@H](C)[C@H](NC(=O)CN)C(=O)N[C@@H](CCCCN)C(=O)N[C@@H](CCCCN)C(=O)N[C@@H](Cc1ccccc1)C(=O)N[C@@H](CC(C)C)C(=O)N[C@@H](CCCCN)C(=O)N[C@@H](CO)C(=O)N[C@]1(C)CCCCCCC=CCCC[C@@](C)(C(=O)N[C@@H](CCCCN)C(N)=O)NC(=O)[C@H](C)NC(=O)[C@H](CCCCN)NC(=O)[C@H](C(C)C)NC(=O)[C@H](Cc2ccccc2)NC(=O)[C@H](CCCCN)NC(=O)[C@H](CCCCN)NC1=O [Peptide 9] (H-GIKKFLKS[R8]KKFVKA[S5]K-NH2; staple 9-16) | 3.125 (≈ 6.38 µg/mL) | – | 6.25 (≈ 12.8 µg/mL) | 3.125 (≈ 6.38 µg/mL) | 6.25 (≈ 12.8 µg/mL) | – |
| CCCCCC(=O)N[C@@]1(C)CCCC=CCCC[C@@](C)(C(=O)N[C@@H](CC(C)C)C(=O)N[C@@H](CCCCN)C(=O)N[C@@H](CO)C(=O)N[C@@H](C)C(=O)N[C@@H](CCCCN)C(=O)N[C@@H](CCCCN)C(=O)N[C@@H](Cc2ccccc2)C(=O)N[C@H](C(=O)N[C@@H](CCCCN)C(=O)N[C@@H](C)C(=O)N[C@@H](Cc2ccccc2)C(=O)N[C@@H](CCCCN)C(N)=O)C(C)C)NC(=O)[C@H](CCCCN)NC(=O)[C@H](CCCCN)NC(=O)[C@H]([C@@H](C)CC)NC1=O [Peptide C6-2] (Hexanoyl-[S5]IKK[S5]LKSAKKFVKAFK-NH2; staple 1-5) | 3.125 (≈ 6.6 µg/mL) | – | 3.125 (≈ 6.6 µg/mL) | 1.56 (≈ 3.29 µg/mL) | 1.56 (≈ 3.29 µg/mL) | – |
| CCCCCCCCCCCC(=O)N[C@@]1(C)CCCC=CCCC[C@@](C)(C(=O)N[C@@H](CC(C)C)C(=O)N[C@@H](CCCCN)C(=O)N[C@@H](CO)C(=O)N[C@@H](C)C(=O)N[C@@H](CCCCN)C(=O)N[C@@H](CCCCN)C(=O)N[C@@H](Cc2ccccc2)C(=O)N[C@H](C(=O)N[C@@H](CCCCN)C(=O)N[C@@H](C)C(=O)N[C@@H](Cc2ccccc2)C(=O)N[C@@H](CCCCN)C(N)=O)C(C)C)NC(=O)[C@H](CCCCN)NC(=O)[C@H](CCCCN)NC(=O)[C@H]([C@@H](C)CC)NC1=O [Peptide C12-2] (Lauroyl-[S5]IKK[S5]LKSAKKFVKAFK-NH2; staple 1-5) | 25 (≈ 54.9 µg/mL) | – | 12.5 (≈ 27.4 µg/mL) | 6.25 (≈ 13.7 µg/mL) | 6.25 (≈ 13.7 µg/mL) | – |
| CCCCCCCCCCCCCCCCCC(=O)N[C@@]1(C)CCCC=CCCC[C@@](C)(C(=O)N[C@@H](CC(C)C)C(=O)N[C@@H](CCCCN)C(=O)N[C@@H](CO)C(=O)N[C@@H](C)C(=O)N[C@@H](CCCCN)C(=O)N[C@@H](CCCCN)C(=O)N[C@@H](Cc2ccccc2)C(=O)N[C@H](C(=O)N[C@@H](CCCCN)C(=O)N[C@@H](C)C(=O)N[C@@H](Cc2ccccc2)C(=O)N[C@@H](CCCCN)C(N)=O)C(C)C)NC(=O)[C@H](CCCCN)NC(=O)[C@H](CCCCN)NC(=O)[C@H]([C@@H](C)CC)NC1=O [Peptide C18-2] (Stearoyl-[S5]IKK[S5]LKSAKKFVKAFK-NH2; staple 1-5) | >50 | – | >50 | >50 | >50 | poor solubility |
